In this assay the test system is P. falciparum Dd2 in RBCs, SYBR green growth. The experiment in a line: growth inhibition of P. falciparum blood stages, dose response, PfHsp90 inhibitor project, Dd2 strain, red blood cells, dry powder (AID 588838).
As for `O=S(=O)(NC1CC2CCC1C2)c1ccc(Cl)cc1` (stereo unspecified), the AC50 is 98.5 µM.
With `Cc1ccc(OCc2n[nH]c(=S)n2C2CCCCC2)cc1`, the AC50 is 60.6 µM.
Take `O=C(CSCC(=O)N1CCCCC1)Nc1nc(-c2ccc(Cl)s2)cs1`: the concentration at half-maximal activity (AC50) was 40 µM.
The value for `O=S(=O)(/C=C/c1ccccc1)NC1CCCCCCC1` was 66.1 µM.
With `O=S(=O)(NC1CCCCCC1)c1ccc(Br)s1`, the AC50 was 16.3 µM.
The value for `COc1ccc2c(c1)C=C(C(=O)NCc1ccc(Cl)cc1)CO2` was 43.9 µM.

The values above are taken from PubChem BioAssay AID588838 (Broad Institute, 2011).
